How the values were obtained:
[1] = Systemic effect of intranasal mometasone furoate (HPLC metabolite profiling of plasma radioactivity, first-pass metabolism, cortisol secretion); assay type: in vivo; settings: administered intranasally
[2] = Phase-2 double-blind, randomized, placebo-controlled study in acute rhinosinusitis; assay type: in vivo, human; settings: Amoxicillin 500 mg three times a day
Description: A Phase-2, dose-ranging, double-blind, double-dummy, randomized, multi-center, multi-national study with 4 parallel groups was carried out. There were three treatment regimens: Mometasone Furoate Nasal Spray 200 μg was administered once a day; Mometasone Furoate Nasal Spray 200 μg also was administered twice a day; Amoxicillin 500 mg was administered three times a day. All three were administered against placebo. The regimens were administered to subjects 12 years of age or older with acute rhinosinusitis that was clinically diagnosed with symptoms present for 7 days or more and 28 days or less. Subjects with a major symptom score (sum of symptoms—facial pain, rhinorrhea, post nasal drip, sinus headache, nasal congestion—each scored 0—none-to 3—severe) greater than or equal to 5 and less than or equal to 12 at baseline with less than or equal to 3 symptoms scored severe were included. Subjects with a bacterial rhinosinusitis suspected on the presence of fever greater than or equal to 101° F./38.3° C., persistent severe unilateral facial pain/tooth pain, orbital or peri-orbital facial swelling, dental involvement; and/or worsening symptoms after initial improvement were excluded from the study. The primary efficacy variable of the study was the actual major symptom score (averaged daily for AM and PM assessments over 15 days of treatment). […]

Structure (SMILES) | first-pass metabolism in the liver [1] | reduction in cortisol secretion levels [1] | major symptom score, efficacy vs. placebo ([2]; p=0.275) | recurrence rate ([2]; follow-up phase (14 days), MFNS 200 μg twice a day)
C[C@@H]1C[C@H]2[C@@H]3CCC4=CC(=O)C=C[C@]4(C)[C@@]3(Cl)[C@@H](O)C[C@]2(C)[C@@]1(OC(=O)c1ccco1)C(=O)CCl [mometasone furoate, Mometasone furoate] | > 98% | minimal reduction |  | 
CC1(C)S[C@@H]2[C@H](NC(=O)[C@H](N)c3ccc(O)cc3)C(=O)N2[C@H]1C(=O)O [Amoxicillin] |  |  | not different from placebo | 8%
